The text below walks through data of patent publication US20060094059A1, “Methods for identifying new drug leads and new therapeutic uses for known drugs” (Odyssey Thera, Inc., priority 2004, published 2006).

Assay [1] relates to Wee1:Cdc2. The experiment in a line: Protein-fragment complementation assay Wee1:Cdc2. It counts as cell-based, human. The settings on record: hit in Wee1/Cdc2 assay; drugs screened at 10 micromolar. The source says: To construct dynamic assays for protein-protein complexes, we used a protein-fragment complementation assay strategy (PCAs) in intact human cells. (A variety of other suitable assays, and reporter options, are described in detail below.) The principle of PCA is that complementary polypeptide fragments (F[1] and F[2]) of a reporter protein or enzyme will fold into an active form only if fused to two proteins which interact and bring the complementary fragments of the reporter protein into proximity. Reconstitution of the fragments of the reporter protein generates a fluorescent signal that can be quantified in intact cells, and the amount of the signal is proportional to the amount of the protein-protein complex used in constructing the assay. Given a suitable reporter type, the subcellular location of the complex can also be measured.
Reporter fragments for PCA were generated by oligonucleotide synthesis (Blue Heron Biotechnology, Bothell, Wash.), starting with the sequence of yellow fluorescent protein (YFP). First, oligonucleotides coding for polypeptide fragments YFP[1]and YFP[2] […] Next, PCR mutagenesis was used to generate the mutant fragments IFP[1] and IFP[2]. The IFP[1] fragment corresponds to YFP[1]-(F46L, F64L, M153T) and the IFP[2] fragment corresponds to YFP[2]-(V163A, S175G). […]

Assay [2] has as its system non-small cell lung carcinoma (A549) cells. The experiment in a line: MTT proliferation assay, NSCLC. It counts as cell-based, Human. The settings on record: Homo sapiens, Tumor Cell NSCLC (A549), 120 hours, read-out: Anti-proliferative IC-50. The protocol:
(§1) Cells were maintained in various media as follows: A549, LoVo and PC-3 (Ham's F12K medium with 2 mM L-glutamine and 1.5 g/L sodium bicarbonate), MIA PaCa-2 (Dulbecco's modified Eagle's medium with 4 mM L-glutamine and 4.5 g/L glucose), U87-MG (MEM+Earle's BSS). Medium for each cell line was supplemented with 10% FBS and […] Penecillin/Streptomycin. All cells were grown in incubators set at 37° C., 5% CO2. Thiazolyl Blue Tetrazolium Bromide (MTT) based proliferation assays were performed to assess the anti-proliferative activities of the compounds on these cells. Cells were seeded in 96 well plates at a density of 750 cells/well 24 hours prior to compound treatment. The cells were incubated with varying concentrations of compounds for 120 hours. […] Drug treatment was performed in 5 replicate wells. Background absorbance was established by wells containing medium but no cells. Vehicle (DMSO) only was used as control. MTT (Sigma-Aldrich, St. Louis, Mo.) was added to each well at a final concentration of 0.5 mg/ml. Following a 2 hour incubation at 37° C., medium in the wells was replaced with 0.15 ml DMSO. The plates were agitated for 15 min using a microtiter plate shaker.
(In general: Tetrazolium dyes change colour on reduction, which living cells bring about.)

Assay [3] deals with pancreatic carcinoma (MIA PaCa-2) cells. The experiment in a line: MTT proliferation assay, pancreatic. It counts as cell-based, Human. The settings on record: Homo sapiens, Tumor Cell Pancreatic (MIA PaCa-2), 120 hours, read-out: Anti-proliferative IC-50. The procedure: as §1
For assay [4], the system named is glioblastoma (U-87 MG) cells. Nature of the assay: MTT proliferation assay, glioblastoma. The class given is cell-based. The settings on record: Homo sapiens, Tumor Cell Glioblastoma (U-87 MG), 120 hours, read-out: Anti-proliferative IC-50. The protocol: as §1
The subject of assay [5] is prostate adenocarcinoma (PC-3) cells. Nature of the assay: MTT proliferation assay, prostate. It counts as cell-based, Human. The settings on record: Homo sapiens; Tumor Cell Prostate (PC-3); MTT, 120 hours; read-out: Anti-proliferative IC-50. The protocol:
We used these methods to mine the known pharmacopeia for drugs with previously-unsuspected activity against cancer-related pathways. […] Hits from our cell-based screens were tested for antiproliferative activity in up to 5 different human tumor cell lines, as follows. First, drugs with significant activity in the cellular screen(s) were tested for their ability to block proliferation of a human tumor cell line (PC-3) at an initial concentration of 10 micromolar. For drugs with antiproliferative activity in PC-3 cells, dose-response curves to determine the IC50 for antiproliferative activity and additional tumor cell lines were tested to determine the breadth of activity. Methods for assessing the antiproliferative activity of the cell-based drug ‘hits’ are described below.
as §1

The subject of assay [6] is colon adenocarcinoma (LoVo) cells. Nature of the assay: MTT proliferation assay, colon. It counts as cell-based, Human. The settings on record: Homo sapiens, Tumor Cell Colon (LoVo), 120 hours, read-out: Anti-proliferative IC-50. The procedure:
as §1

Structures are written as SMILES.

For the compound `CO[C@H]1[C@H](O)[C@H](O[C@H]2CC[C@@]3(C=O)[C@H](CC[C@@H]4[C@@H]3CC[C@]3(C)[C@@H](C5=CC(=O)OC5)CC[C@]43O)C2)O[C@@H](C)[C@@H]1O` [Peruvoside], in assay [1], the Assay activity entry is on record as “Wee1/Cdc2”. Also, the IC50 in assay [2] amounted to 4 nM; in assay [3], 3 nM; in assay [4] it was 2 nM; in assay [5] it was 5 nM; in assay [6], 9 nM.
